ChEMBL document CHEMBL1123649, “Congener derivatives and conjugates of histamine: synthesis and tissue and receptor selectivity of the derivatives” (J Med Chem, 1987)

Key:
[1] = biological target: Histamine H1 receptor (Homo sapiens) (UniProt P35367); experiment: Effect on peripheral vasculature of the rabbit as percentage change in contractility.; format: functional, tissue-based; conditions: Oryctolagus cuniculus, target entry is the homologue from another species
[2] = biological target: Histamine H2 receptor (Mus musculus) (UniProt P97292); experiment: Relative potency by cAMP assay in natural suppressor cells.; format: functional, cell-based
Histamine H2 receptor (Mus musculus), sequence (P97292 whole entry): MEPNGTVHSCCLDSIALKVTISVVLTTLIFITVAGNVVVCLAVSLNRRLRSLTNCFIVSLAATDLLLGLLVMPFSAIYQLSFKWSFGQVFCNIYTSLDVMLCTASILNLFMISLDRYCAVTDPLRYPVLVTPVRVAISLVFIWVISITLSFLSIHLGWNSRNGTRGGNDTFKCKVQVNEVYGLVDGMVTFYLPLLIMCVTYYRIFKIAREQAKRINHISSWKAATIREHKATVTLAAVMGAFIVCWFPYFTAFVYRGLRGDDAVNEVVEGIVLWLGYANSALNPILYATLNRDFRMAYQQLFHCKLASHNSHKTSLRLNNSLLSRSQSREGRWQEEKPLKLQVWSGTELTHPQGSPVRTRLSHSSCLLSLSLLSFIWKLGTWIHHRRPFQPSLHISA

[3] = biological target: Histamine H2 receptor (Cavia porcellus) (UniProt P47747); experiment: Relative potency in guinea pig myocardium (GPM) by adenylate cyclase stimulation assay, H2 receptor response; format: functional, tissue-based
Histamine H2 receptor (Cavia porcellus), sequence (P47747 whole entry): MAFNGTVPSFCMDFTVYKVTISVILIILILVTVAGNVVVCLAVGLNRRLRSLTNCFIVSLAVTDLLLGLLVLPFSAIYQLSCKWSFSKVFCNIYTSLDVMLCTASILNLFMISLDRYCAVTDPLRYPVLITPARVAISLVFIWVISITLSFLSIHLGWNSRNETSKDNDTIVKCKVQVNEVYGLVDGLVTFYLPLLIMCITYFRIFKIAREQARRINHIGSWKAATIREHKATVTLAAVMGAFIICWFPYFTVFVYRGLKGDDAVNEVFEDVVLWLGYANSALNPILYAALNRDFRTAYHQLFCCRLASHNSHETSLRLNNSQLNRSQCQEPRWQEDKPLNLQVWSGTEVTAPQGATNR

Histamine H1 receptor (Homo sapiens), sequence (P35367 whole entry): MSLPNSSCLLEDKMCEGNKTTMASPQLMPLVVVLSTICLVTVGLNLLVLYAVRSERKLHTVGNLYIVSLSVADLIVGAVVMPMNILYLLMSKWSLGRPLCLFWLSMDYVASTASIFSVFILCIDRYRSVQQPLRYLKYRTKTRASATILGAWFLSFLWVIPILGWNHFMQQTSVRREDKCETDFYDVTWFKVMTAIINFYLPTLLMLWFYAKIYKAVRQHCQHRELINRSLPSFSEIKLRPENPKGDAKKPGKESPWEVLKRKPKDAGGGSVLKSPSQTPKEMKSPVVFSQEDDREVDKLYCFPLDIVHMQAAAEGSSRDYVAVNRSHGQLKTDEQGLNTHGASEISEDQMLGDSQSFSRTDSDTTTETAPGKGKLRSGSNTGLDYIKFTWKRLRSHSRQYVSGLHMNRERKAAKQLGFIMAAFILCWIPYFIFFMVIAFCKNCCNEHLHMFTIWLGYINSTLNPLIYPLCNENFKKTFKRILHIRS

Row | Change [1] [%] | Relative potency [2] | Relative potency [3] | Structure (SMILES)
1 | 0 | 0 | – | CC(CC(=O)Nc1ccc(C(F)(F)F)cc1)NCCc1c[nH]cn1 (stereo not given)
2 | 0 | 0 | 0.01 | CCCCNC(=O)CCCCC(C)NCCc1c[nH]cn1 (stereo not given)
3 | 0 | 0 | – | CC(CCC(=O)Nc1ccc(C(F)(F)F)cc1)NCCc1c[nH]cn1 (stereo not given)
4 | 0 | 0 | – | Cc1ccc(NC(=O)CCC(C)NCCc2c[nH]cn2)cc1 (stereo not given)
5 | 0 | 0 | 0 | CCCCCC(=O)NCCc1c[nH]cn1
6 | 0 | 4.4 | 0 | Cc1ccc(NC(=O)CCCC(=O)NCCc2c[nH]cn2)cc1

Continued, molecule first:

Row | Structure (SMILES) | Change [1] [%] | Relative potency [2] | Relative potency [3]
7 | Cc1ccc(NC(=O)CC(C)NCCc2c[nH]cn2)cc1 (stereo not given) | 0 | 0 | –
8 | Cc1ccc(NC(=O)CCCCNCCc2c[nH]cn2)cc1 | 0 | 2 | 0.09
9 | CNC(=O)CNC(=O)C(Cc1ccccc1)N(NC(=O)CCCCC(C)NCCc1c[nH]cn1)C(=O)OC(C)(C)C (stereo not given) | 0 | 0 | 0.0007
10 | Cc1ccc(NC(=O)CCCC(C)NCCc2c[nH]cn2)cc1 (stereo not given) | 90 | 4000 | 0.01
11 | CNC(=O)CNC(=O)C(Cc1ccccc1)N(NC(=O)CCCC(C)NCCc1c[nH]cn1)C(=O)OC(C)(C)C (stereo not given) | 0 | 0 | 0
12 | CNC(=O)CNC(=O)C(Cc1ccccc1)N(NC(=O)CCC(C)NCCc1c[nH]cn1)C(=O)OC(C)(C)C (stereo not given) | 0 | 0 | 0
13 | Cc1ccc(NC(=O)CCCCC(C)NCCc2c[nH]cn2)cc1 (stereo not given) | 0 | 3 | 0.07
14 | CC(CCCCC(=O)Nc1ccccc1C(F)(F)F)NCCc1c[nH]cn1 (stereo not given) | 0 | 0 | 0
15 | NCCc1c[nH]cn1 | 284 | 1 | 1
16 | Cc1ccc(NC(=O)CCCCCC(C)NCCc2c[nH]cn2)cc1 (stereo not given) | 0 | 2 | 0.02
17 | CCCCCCNCCc1c[nH]cn1 | 93 | 5 | 0
18 | CC(CCCC(=O)Nc1ccc(C(F)(F)F)cc1)NCCc1c[nH]cn1 (stereo not given) | 0 | 0 | 0
19 | CCCCCC(C)NCCc1c[nH]cn1 (stereo not given) | 0 | 0 | 0
20 | CC(CCCCC(=O)Nc1ccc(C(F)(F)F)cc1)NCCc1c[nH]cn1 (stereo not given) | – | 40000 | 0
